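Briefly, cells in 96-well plates were exposed to five compound concentrations for 48 h, and endpoints were estimated by linear interpolation. Here, GI50 denotes the concentration required for 50% inhibition of growth.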 Activity calls are given as the source filed them. No stated cut-off is given here; in the data, active = GI50 up to about 1.1 µM and inactive = higher.
Experiments:
Experiment in all cases: inhibition of tumour cell growth, NCI panel, 48 h
[1] = system: HT-29
[2] = system: SF-539
[3] = system: NCI-H522
[4] = system: SK-OV-3
[5] = system: RXF 393
[6] = system: T47D
[7] = system: SK-MEL-28
[8] = system: M14
[9] = system: HL-60
[10] = system: SK-MEL-2
[11] = system: U-251
[12] = system: MCF7
[13] = system: A498
[14] = system: ACHN
[15] = system: DU-145
[16] = system: TK-10
[17] = system: SNB-19
[18] = system: OVCAR-8
[19] = system: MDA-MB-435

Compound	GI50 [1]	GI50 [2]	GI50 [3]	GI50 [4]	GI50 [5]	GI50 [6]	GI50 [7]	GI50 [8]	GI50 [9]	GI50 [10]	GI50 [11]	GI50 [12]	GI50 [13]	GI50 [14]	GI50 [15]	GI50 [16]	GI50 [17]	GI50 [18]	GI50 [19]
Cc1cc(C)c2c(=O)n(CC(O)CN3CCN(CCOCCO)CC3)sc2n1 (stereo unspecified)	19.1 µM (inactive)	20 µM (inactive)	14.6 µM (inactive)	26.4 µM (inactive)	4.68 µM (inactive)	19.1 µM (inactive)	17.2 µM (inactive)	17.8 µM (inactive)	20.5 µM (inactive)	19.7 µM (inactive)	18.1 µM (inactive)	18.3 µM (inactive)	21.9 µM (inactive)	20 µM (inactive)	30.2 µM (inactive)	17.5 µM (inactive)	36.5 µM (inactive)	19.9 µM (inactive)	17.4 µM (inactive)
C[N+]1(CCN=C=NC2CCCCC2)CCOCC1	> 100 µM (inactive)	> 100 µM (inactive)	> 100 µM (inactive)	> 100 µM (inactive)	> 100 µM (inactive)	> 100 µM (inactive)	> 100 µM (inactive)	> 100 µM (inactive)	> 100 µM (inactive)	> 100 µM (inactive)	> 100 µM (inactive)	> 100 µM (inactive)	> 100 µM (inactive)	> 100 µM (inactive)	> 100 µM (inactive)	> 100 µM (inactive)	> 100 µM (inactive)	> 100 µM (inactive)	> 100 µM (inactive)
O=C(C#Cc1ccccc1)C1=Cc2ccccc2OC1	2.11 µM (inactive)	1.93 µM (inactive)	1.37 µM (inactive)	15 µM (inactive)	3 µM (inactive)	3.26 µM (inactive)	7.53 µM (inactive)	3.01 µM (inactive)	2.19 µM (inactive)	3.94 µM (inactive)	3.6 µM (inactive)	1.42 µM (inactive)	19.2 µM (inactive)	2.17 µM (inactive)	5.53 µM (inactive)	1.9 µM (inactive)	15 µM (inactive)	2.39 µM (inactive)	3.86 µM (inactive)
COC(=O)CCC(C)[C@H]1CCC2C3CC[C@@H]4CC5(CC[C@]4(C)C3C[C@H](OC(C)=O)[C@@]21C)OOC1(CCCCC1)OO5 (stereo partly specified)	14.2 µM (inactive)	44.7 µM (inactive)	6.01 µM (inactive)	> 100 µM (inactive)	> 100 µM (inactive)	2.75 µM (inactive)	27.7 µM (inactive)	3.33 µM (inactive)	2.49 µM (inactive)	5.26 µM (inactive)	6.62 µM (inactive)	8.69 µM (inactive)	> 100 µM (inactive)	8.32 µM (inactive)	7.87 µM (inactive)	> 100 µM (inactive)	> 100 µM (inactive)	13.7 µM (inactive)	7.35 µM (inactive)
O=C1C(N2CCN(CCOCCO)CC2)=C(Cl)C(=O)c2ncccc21	22.6 µM (inactive)	21.1 µM (inactive)	2.08 µM (inactive)	> 10 µM (inactive)	20 µM (inactive)	2.58 µM (inactive)	22.2 µM (inactive)	20.8 µM (inactive)	3.06 µM (inactive)	20.9 µM (inactive)	18.7 µM (inactive)	3.78 µM (inactive)	> 10 µM (inactive)	19.1 µM (inactive)	52.7 µM (inactive)	29.4 µM (inactive)	> 10 µM (inactive)	18.1 µM (inactive)	1.88 µM (inactive)
C/C=C/C(O)P(=O)(OC)OC (stereo unspecified)	0.33 µM (active)	0.279 µM (active)	0.214 µM (active)	1.03 µM (active)	0.215 µM (active)	0.334 µM (active)	0.32 µM (active)	0.207 µM (active)	0.256 µM (active)	0.324 µM (active)	0.307 µM (active)	0.269 µM (active)	0.316 µM (active)	0.344 µM (active)	0.34 µM (active)	0.366 µM (active)	0.436 µM (active)	0.451 µM (active)	0.267 µM (active)
O=c1ssc(Cl)c1Nc1c(Cl)ssc1=O	22.4 µM (inactive)	25.1 µM (inactive)	19.6 µM (inactive)	25.9 µM (inactive)	15 µM (inactive)	9.2 µM (inactive)	28.4 µM (inactive)	19.2 µM (inactive)	7.85 µM (inactive)	19.4 µM (inactive)	19.5 µM (inactive)	24.3 µM (inactive)	17.8 µM (inactive)	> 40 µM (inactive)	17.3 µM (inactive)	19 µM (inactive)	25.7 µM (inactive)	21.5 µM (inactive)	18 µM (inactive)
CC(=O)O[C@H]1C(=O)[C@@]2(C)[C@H]([C@H](OC(=O)c3ccoc3)[C@]3(O)C[C@H](OC(=O)[C@H](O)[C@@H](NC(=O)c4ccccc4)c4ccccc4)C(C)=C1C3(C)C)[C@]1(OC(C)=O)CO[C@@H]1C[C@@H]2O	0.0307 µM (active)	0.0286 µM (active)	0.0434 µM (active)	0.0578 µM (active)	0.277 µM (active)	0.0461 µM (active)	> 12.5 µM (inactive)	0.129 µM (active)	0.0107 µM (active)	0.0448 µM (active)	0.0811 µM (active)	0.0138 µM (active)	0.811 µM (active)	2.1 µM (inactive)	0.352 µM (active)	> 2.99 µM (inactive)	0.145 µM (active)	0.0798 µM (active)	0.00456 µM (active)
OC1c2[nH]c3ccccc3c2CCN2CCCCC12 (stereo unspecified)	> 100 µM (inactive)	> 100 µM (inactive)	> 100 µM (inactive)	> 100 µM (inactive)	> 100 µM (inactive)	> 100 µM (inactive)	> 100 µM (inactive)	> 100 µM (inactive)	> 100 µM (inactive)	> 100 µM (inactive)	> 100 µM (inactive)	> 100 µM (inactive)	> 100 µM (inactive)	> 100 µM (inactive)	> 100 µM (inactive)	> 100 µM (inactive)	> 100 µM (inactive)	> 100 µM (inactive)	> 100 µM (inactive)
O=c1cc(N2CCNCC2)nc2ccccn12	> 100 µM (inactive)	> 100 µM (inactive)	> 100 µM (inactive)	> 100 µM (inactive)	> 100 µM (inactive)	> 100 µM (inactive)	–	> 100 µM (inactive)	> 100 µM (inactive)	> 100 µM (inactive)	> 100 µM (inactive)	> 100 µM (inactive)	> 100 µM (inactive)	> 100 µM (inactive)	> 100 µM (inactive)	> 100 µM (inactive)	> 100 µM (inactive)	> 100 µM (inactive)	> 100 µM (inactive)
c1cc(-c2ccc(Oc3ccc(-c4ccncc4)cc3)cc2)ccn1	3.7 µM (inactive)	5.4 µM (inactive)	6.12 µM (inactive)	15.3 µM (inactive)	25.6 µM (inactive)	5.13 µM (inactive)	> 26.7 µM (inactive)	4.76 µM (inactive)	2.18 µM (inactive)	5.38 µM (inactive)	4.01 µM (inactive)	4.26 µM (inactive)	6.76 µM (inactive)	9.48 µM (inactive)	11.4 µM (inactive)	7.18 µM (inactive)	6.25 µM (inactive)	9.55 µM (inactive)	1.85 µM (inactive)
C=C(C(N)=O)c1ccc([N+](=O)[O-])o1	11.9 µM (inactive)	12.6 µM (inactive)	1.97 µM (inactive)	30.8 µM (inactive)	3.08 µM (inactive)	20.5 µM (inactive)	2.67 µM (inactive)	2.82 µM (inactive)	3.16 µM (inactive)	5.93 µM (inactive)	15.6 µM (inactive)	6.11 µM (inactive)	12.6 µM (inactive)	2.89 µM (inactive)	11.4 µM (inactive)	14.1 µM (inactive)	37.1 µM (inactive)	2.9 µM (inactive)	2.56 µM (inactive)
CC1=NN(c2cccc(Cl)c2)C2(C1=Cc1ccc(O)cc1)C(Cl)C(=O)N2c1nc2ccccc2s1 (stereo unspecified)	21.7 µM (inactive)	35.4 µM (inactive)	22.2 µM (inactive)	22.8 µM (inactive)	20.5 µM (inactive)	15.8 µM (inactive)	29 µM (inactive)	24.7 µM (inactive)	26.4 µM (inactive)	20.4 µM (inactive)	20 µM (inactive)	17.8 µM (inactive)	13.6 µM (inactive)	19.7 µM (inactive)	21.5 µM (inactive)	37.7 µM (inactive)	–	27 µM (inactive)	25.1 µM (inactive)
CC(=O)O[C@H]1C(=O)[C@@]2(C)C(C(OC(=O)c3ccccc3)[C@]3(O)CC(OC(=O)C(O)C(NC(=O)c4ccccc4)c4ccc(F)cc4)C(C)=C1C3(C)C)[C@]1(OC(C)=O)CO[C@@H]1C[C@@H]2O (stereo partly specified)	< 0.001 µM (active)	< 0.001 µM (active)	< 0.001 µM (active)	0.00371 µM (active)	< 0.001 µM (active)	0.00966 µM (active)	–	0.00164 µM (active)	< 0.001 µM (active)	0.00133 µM (active)	0.00124 µM (active)	< 0.001 µM (active)	< 0.001 µM (active)	0.0139 µM (active)	0.00126 µM (active)	0.0296 µM (active)	0.00252 µM (active)	0.00164 µM (active)	< 0.001 µM (active)
CC(C(N)=O)N(C)C(=O)c1cnc2ccccc2c1 (stereo unspecified)	> 100 µM (inactive)	> 100 µM (inactive)	> 100 µM (inactive)	–	> 100 µM (inactive)	> 100 µM (inactive)	> 100 µM (inactive)	> 100 µM (inactive)	> 100 µM (inactive)	> 100 µM (inactive)	> 100 µM (inactive)	> 100 µM (inactive)	> 100 µM (inactive)	> 100 µM (inactive)	> 100 µM (inactive)	> 100 µM (inactive)	> 100 µM (inactive)	> 100 µM (inactive)	> 100 µM (inactive)

Reference: ChEMBL document CHEMBL1201862, “PubChem BioAssay data set” (2004)
